Where a SMILES comes first, the peptide text is derived from it. [ ]: non-standard residue; d: D form. The star is where a group is joined. NHCH2CH2OH = OCCN*; For = O=C*
Experiments:
[1] = cell viability/%
How it was run: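 Peptide stocks diluted 250× in growth medium; P388 cells 1 × 10^4 cells/mL final; 37 °C, 5% CO2, 92 h. WST-1 + 1-methoxy PMS, 4 h, A415. Output: % viability.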

[2] = H+/Na+ transport assay of bead-derived peptides (one-point); type: biochemical; parameters: key: relative activity; mean of two control wells = 1.00; settings: bead-derived peptide solution, EYPC/EYPG LUVs;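 note: relative to parent gramicidin A activity set to 1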
How it was run: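 H+/Na+ transport is monitored through pyranine fluorescence in freshly extruded LUVs after a 30-min room-temperature vortex with each library peptide at a single concentration. Signals are normalized to detergent (Triton X-100) and untreated controls.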

[3] = test system: Streptococcus pyogenes SSI-9; experiment: Antibacterial activity assay of bead-derived peptides (three concentrations); type: cell-based; parameters: key: +++: inhibition by the 640-fold diluted peptide solution; ++: inhibition by the 160-fold diluted solution; +: inhibition by the 40-fold diluted solution; -: no inhibition; settings: S. pyogenes, bead-derived peptide solution, three concentrations
How it was run: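 Growth inhibition scored visually as precipitated bacteria after 37 °C, 18 h incubation. Streptococcus pyogenes SSI-9 inoculum of 2 × 10^5 CFU in Ca2+/Mg2+-adjusted Mueller Hinton broth plus 5% laked horse blood; peptides tested at three levels: stock, 4-fold and 16-fold DMSO dilutions.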

Structure (SMILES) | viability [1] [%] | H+/Na+ transport activity normalized against the value of 1 (1.00) [2] | antibacterial activity [3]
CNC(=O)C[C@@H](NC(=O)[C@@H](NC(=O)[C@@H](CC(C)C)NC(=O)[C@H](C)NC(=O)[C@@H](CC(C)C)NC(=O)[C@H](C)NC(=O)CNC(=O)[C@@H](NC=O)C(C)C)C(C)C)C(=O)N[C@@H](Cc1c[nH]c2ccccc12)C(=O)N[C@H](CC(C)C)C(=O)N[C@@H](Cc1c[nH]c2ccccc12)C(=O)N[C@H](CC(C)C)C(=O)N[C@@H](Cc1c[nH]c2ccccc12)C(=O)N[C@@H](C(=O)N[C@@H](Cc1c[nH]c2ccccc12)C(=O)NCCO)C(C)C [compound 4186] (For-VGA[dL]A[dL]V[dD](NHMe)W[dL]W[dL]W[dV]W-NHCH2CH2OH) | 98.7 | 1.44 | -
CC(C)C[C@@H](NC(=O)[C@H](C)NC(=O)[C@H](NC(=O)[C@H](C)NC(=O)CNC(=O)[C@@H](NC=O)C(C)C)C(C)C)C(=O)N[C@H](C(=O)N[C@H](CC(C)C)C(=O)N[C@@H](Cc1c[nH]c2ccccc12)C(=O)N[C@H](CC(C)C)C(=O)N[C@@H](Cc1c[nH]c2ccccc12)C(=O)N[C@@H](C(=O)N[C@@H](Cc1c[nH]c2ccccc12)C(=O)N[C@H](CC(C)C)C(=O)N[C@@H](Cc1c[nH]c2ccccc12)C(=O)NCCO)[C@H](C)O)C(C)C [compound 2682] (For-VGA[dV]A[dL]V[dL]W[dL]W[dT]W[dL]W-NHCH2CH2OH) | 100 | 1.06 | +
CC(C)C[C@@H](NC(=O)[C@H](C)NC(=O)CNC(=O)[C@@H](NC=O)C(C)C)C(=O)N[C@@H](C)C(=O)N[C@H](CC(C)C)C(=O)N[C@H](C(=O)N[C@H](CC(C)C)C(=O)N[C@@H](Cc1c[nH]c2ccccc12)C(=O)N[C@@H](C(=O)N[C@@H](Cc1c[nH]c2ccccc12)C(=O)N[C@@H](C(=O)N[C@@H](Cc1c[nH]c2ccccc12)C(=O)N[C@H](CC(C)C)C(=O)N[C@@H](Cc1c[nH]c2ccccc12)C(=O)NCCO)C(C)C)[C@H](C)O)C(C)C [compound 196] (For-VGA[dL]A[dL]V[dL]W[dT]W[dV]W[dL]W-NHCH2CH2OH) | 100 | 1.06 | -
CC(C)C[C@@H](NC(=O)[C@H](C)NC(=O)CNC(=O)[C@@H](NC=O)C(C)C)C(=O)N[C@@H](C)C(=O)N[C@H](CC(C)C)C(=O)N[C@H](C(=O)N[C@@H](C(=O)N[C@@H](Cc1c[nH]c2ccccc12)C(=O)N[C@@H](C(=O)N[C@@H](Cc1c[nH]c2ccccc12)C(=O)N[C@@H](C(=O)N[C@@H](Cc1c[nH]c2ccccc12)C(=O)N[C@H](CC(C)C)C(=O)N[C@@H](Cc1c[nH]c2ccccc12)C(=O)NCCO)C(C)C)C(C)C)[C@H](C)O)C(C)C [compound 4784] (For-VGA[dL]A[dL]V[dT]W[dV]W[dV]W[dL]W-NHCH2CH2OH) | 100 | 1.19 | -
CC(C)C[C@@H](NC(=O)[C@H](C)NC(=O)CNC(=O)[C@@H](NC=O)C(C)C)C(=O)N[C@@H](C)C(=O)N[C@H](CC(C)C)C(=O)N[C@H](C(=O)N[C@@H](C(=O)N[C@@H](Cc1c[nH]c2ccccc12)C(=O)N[C@@H](C(=O)N[C@@H](Cc1c[nH]c2ccccc12)C(=O)N[C@H](CC(C)C)C(=O)N[C@@H](Cc1c[nH]c2ccccc12)C(=O)N[C@H](CC(C)C)C(=O)N[C@@H](Cc1c[nH]c2ccccc12)C(=O)NCCO)[C@H](C)O)[C@H](C)O)C(C)C [compound 3858] (For-VGA[dL]A[dL]V[dT]W[dT]W[dL]W[dL]W-NHCH2CH2OH) | 100 | 1.28 | -
CC(C)C[C@@H](NC(=O)[C@H](Cc1c[nH]c2ccccc12)NC(=O)[C@@H](CC(C)C)NC(=O)[C@H](Cc1c[nH]c2ccccc12)NC(=O)[C@H](NC(=O)[C@H](Cc1c[nH]c2ccccc12)NC(=O)[C@H](NC(=O)[C@@H](NC(=O)[C@H](NC(=O)[C@H](C)NC(=O)[C@H](NC(=O)[C@H](C)NC(=O)CNC(=O)[C@@H](NC=O)C(C)C)[C@H](C)O)C(C)C)C(C)C)C(C)C)[C@H](C)O)C(=O)N[C@@H](Cc1c[nH]c2ccccc12)C(=O)NCCO [compound 3226] (For-VGA[dT]A[dV]V[dV]W[dT]W[dL]W[dL]W-NHCH2CH2OH) | 87.6 | 1.06 | -
CC(C)C[C@@H](NC(=O)[C@H](C)NC(=O)[C@H](NC(=O)[C@H](C)NC(=O)CNC(=O)[C@@H](NC=O)C(C)C)C(C)C)C(=O)N[C@H](C(=O)N[C@H](CC(C)C)C(=O)N[C@@H](Cc1c[nH]c2ccccc12)C(=O)N[C@H](CC(C)C)C(=O)N[C@@H](Cc1c[nH]c2ccccc12)C(=O)N[C@@H](C(=O)N[C@@H](Cc1c[nH]c2ccccc12)C(=O)N[C@H](CC(C)C)C(=O)N[C@@H](Cc1c[nH]c2ccccc12)C(=O)NCCO)C(C)C)C(C)C [compound 3255] (For-VGA[dV]A[dL]V[dL]W[dL]W[dV]W[dL]W-NHCH2CH2OH) | 4.6 | 1.13 | +
CC(C)C[C@@H](NC(=O)[C@H](C)NC(=O)[C@H](NC(=O)[C@H](C)NC(=O)CNC(=O)[C@@H](NC=O)C(C)C)[C@H](C)O)C(=O)N[C@H](C(=O)N[C@H](CC(C)C)C(=O)N[C@@H](Cc1c[nH]c2ccccc12)C(=O)N[C@H](CC(C)C)C(=O)N[C@@H](Cc1c[nH]c2ccccc12)C(=O)N[C@H](CC(C)C)C(=O)N[C@@H](Cc1c[nH]c2ccccc12)C(=O)N[C@@H](C(=O)N[C@@H](Cc1c[nH]c2ccccc12)C(=O)NCCO)C(C)C)C(C)C [compound 3778] (For-VGA[dT]A[dL]V[dL]W[dL]W[dL]W[dV]W-NHCH2CH2OH) | 100 | 1.08 | -
CC(C)C[C@@H](NC(=O)[C@H](C)NC(=O)CNC(=O)[C@@H](NC=O)C(C)C)C(=O)N[C@@H](C)C(=O)N[C@@H](C(=O)N[C@H](C(=O)N[C@@H](C(=O)N[C@@H](Cc1c[nH]c2ccccc12)C(=O)N[C@H](CC(C)C)C(=O)N[C@@H](Cc1c[nH]c2ccccc12)C(=O)N[C@@H](C(=O)N[C@@H](Cc1c[nH]c2ccccc12)C(=O)N[C@H](CC(C)C)C(=O)N[C@@H](Cc1c[nH]c2ccccc12)C(=O)NCCO)C(C)C)C(C)C)C(C)C)[C@H](C)O [compound 5555] (For-VGA[dL]A[dT]V[dV]W[dL]W[dV]W[dL]W-NHCH2CH2OH) | 100 | 1.22 | -
CC(C)C[C@@H](NC(=O)[C@H](C)NC(=O)[C@H](NC(=O)[C@H](C)NC(=O)CNC(=O)[C@@H](NC=O)C(C)C)C(C)C)C(=O)N[C@H](C(=O)N[C@H](CC(C)C)C(=O)N[C@@H](Cc1c[nH]c2ccccc12)C(=O)N[C@H](CC(C)C)C(=O)N[C@@H](Cc1c[nH]c2ccccc12)C(=O)N[C@@H](C(=O)N[C@@H](Cc1c[nH]c2ccccc12)C(=O)N[C@@H](C(=O)N[C@@H](Cc1c[nH]c2ccccc12)C(=O)NCCO)C(C)C)C(C)C)C(C)C [compound 9247] (For-VGA[dV]A[dL]V[dL]W[dL]W[dV]W[dV]W-NHCH2CH2OH) | 6 | 1.02 | +
CC(C)C[C@@H](NC(=O)[C@H](Cc1c[nH]c2ccccc12)NC(=O)[C@@H](CC(C)C)NC(=O)[C@H](Cc1c[nH]c2ccccc12)NC(=O)[C@H](NC(=O)[C@H](Cc1c[nH]c2ccccc12)NC(=O)[C@H](NC(=O)[C@@H](NC(=O)[C@H](NC(=O)[C@H](C)NC(=O)[C@H](NC(=O)[C@H](C)NC(=O)CNC(=O)[C@@H](NC=O)C(C)C)C(C)C)C(C)C)C(C)C)C(C)C)C(C)C)C(=O)N[C@@H](Cc1c[nH]c2ccccc12)C(=O)NCCO [compound 1119] (For-VGA[dV]A[dV]V[dV]W[dV]W[dL]W[dL]W-NHCH2CH2OH) | 100 | 1.10 | -
CNC(=O)C[C@@H](NC(=O)[C@H](Cc1c[nH]c2ccccc12)NC(=O)[C@@H](CC(C)C)NC(=O)[C@H](Cc1c[nH]c2ccccc12)NC(=O)[C@@H](CC(C)C)NC(=O)[C@H](Cc1c[nH]c2ccccc12)NC(=O)[C@H](NC(=O)[C@@H](NC(=O)[C@H](NC(=O)[C@H](C)NC(=O)[C@H](NC(=O)[C@H](C)NC(=O)CNC(=O)[C@@H](NC=O)C(C)C)C(C)C)C(C)C)C(C)C)C(C)C)C(=O)N[C@@H](Cc1c[nH]c2ccccc12)C(=O)NCCO [compound 7049] (For-VGA[dV]A[dV]V[dV]W[dL]W[dL]W[dD](NHMe)W-NHCH2CH2OH) | 100 | 1.10 | -
CC(C)C[C@@H](NC(=O)[C@H](Cc1c[nH]c2ccccc12)NC(=O)[C@H](NC(=O)[C@@H](NC(=O)[C@H](NC(=O)[C@H](C)NC(=O)[C@H](NC(=O)[C@H](C)NC(=O)CNC(=O)[C@@H](NC=O)C(C)C)[C@H](C)O)C(C)C)C(C)C)C(C)C)C(=O)N[C@@H](Cc1c[nH]c2ccccc12)C(=O)N[C@@H](C(=O)N[C@@H](Cc1c[nH]c2ccccc12)C(=O)N[C@@H](C(=O)N[C@@H](Cc1c[nH]c2ccccc12)C(=O)NCCO)C(C)C)C(C)C [compound 629] (For-VGA[dT]A[dV]V[dV]W[dL]W[dV]W[dV]W-NHCH2CH2OH) | 100 | 1.12 | -
